Here are results for 49 compounds from ChEMBL document CHEMBL1122653, “Substituted (omega-aminoalkoxy) stilbene derivatives as a new class of anticonvulsants” (1984).

The subject of assay [1] is Mus musculus. The assay can be described thus: Ability to suppress PTZ (pentylenetetrazole ) induced tonic extensor convulsion in mice after oral administration at a dose 50 mg/kg. Format: functional.
Assay [2] relates to Mus musculus. The assay can be described thus: Ability to suppress maximal electroshock induced tonic extensor convulsion in mice after oral administration at 50 mg/kg. Format: functional. (Protection in the maximal electroshock model is a classic sign of anticonvulsant action.)
For assay [3], the system named is Mus musculus. As to the kind of experiment: Ability to suppress PTZ (pentylenetetrazole) induced tonic extensor convulsion in mice after oral administration at a dose 50 mg/kg. The assay is classed as functional.
For assay [4], the system named is Mus musculus. As to the kind of experiment: Ability to suppress PTZ (pentylenetetrazole) induced tonic extensor convulsion in mice after oral administration at a dose 25 mg/kg. Format: functional.
Assay [5] has as its system Mus musculus. As to the kind of experiment: Ability to suppress MES (maximal electroshock ) induced tonic extensor convulsion in mice after oral administration at a dose 100 mg/kg. The assay is classed as functional.
In assay [6] the test system is Mus musculus. As to the kind of experiment: Ability to suppress MES (maximal electroshock) induced tonic extensor convulsion in mice after oral administration at a dose 50 mg/kg. The assay is classed as functional.
Assay [7] relates to Mus musculus. As to the kind of experiment: Ability to suppress PTZ (pentylenetetrazole ) induced tonic extensor convulsion in mice after oral administration of the compound. Format: functional.
The test system of assay [8] is Mus musculus. As to the kind of experiment: Ability to suppress MES (maximal electroshock ) induced tonic extensor convulsion in mice after oral administration of the compound. The assay is classed as functional.
Assay [9] concerns Mus musculus. The assay can be described thus: Ability to suppress PTZ (pentylenetetrazole) induced tonic extensor convulsion in mice after oral administration of the compound. Format: functional.
Assay [10] is filed under the species Rattus norvegicus. The assay can be described thus: Ability to suppress PTZ (pentylenetetrazole) induced clonic convulsions seizures in male Wistar rats. The assay is classed as functional.
The species named for assay [11] is Rattus norvegicus. As to the kind of experiment: Muscle-relaxant action in vertical screen method. The assay is classed as functional.
Assay [12] is described as follows: Ratio of the dose showing muscle relaxant action in rats and the dose suppressing MES induced seizures in rats. The assay is classed as functional.
The species named for assay [13] is Rattus norvegicus. As to the kind of experiment: Ability to suppress MES ( maximal electroshock ) induced seizures in male Wistar rats. The assay is classed as functional.
Assay [14] is filed under the species Rattus norvegicus. The assay can be described thus: Ratio of the dose showing muscle relaxant action in rats and the dose suppressing MES induced seizures in rats.
Assay [15] is filed under the species Rattus norvegicus. As to the kind of experiment: Ability to suppress MES (maximal electroshock) induced seizures in male Wistar rats. Format: functional.
For assay [16], the species on record is Rattus norvegicus. As to the kind of experiment: Ability to suppress PTZ (convulsions seizures in male Wistar rats. Format: functional.
For assay [17], the species on record is Rattus norvegicus. The assay can be described thus: Muscle-relaxant action in vertical screen method. The assay is classed as functional.

Usually inhibition in vivo stands for the share of the control response that was lost under treatment. Read a high inhibition in vivo as strong suppression. For the compound `CN(C)CCCCOc1ccccc1/C=C/c1cccc(F)c1`, the inhibition in vivo at 50 mg/kg in the assay on Mus musculus [1] is 12.5%. As for `CC1CCCN(CCCCOc2ccccc2/C=C/c2ccccc2)C1` (stereo not given), at 50 mg/kg the inhibition in vivo with Mus musculus [2] was 12.5%. Consider `CN(C)CCCOc1ccccc1/C=C/c1ccccc1`, for which the inhibition in vivo at 50 mg/kg with Mus musculus [2] came out at 14.2%; in the assay on Mus musculus [3], 87.5%.

`CCCOC1CCCN(CCCCOc2ccccc2/C=C/c2ccccc2)C1` (stereo not given) gave an inhibition in vivo at 50 mg/kg in the assay with Mus musculus [2] of 0%.

`CN1CCN(CCCCOc2ccccc2/C=C/c2ccccc2F)CC1`: 50 mg/kg produced 0% inhibition in vivo in the assay on Mus musculus [2].

For the compound `CN(C)CCCCOc1ccccc1/C=C/c1ccccc1F`, the inhibition in vivo at 50 mg/kg in the assay with Mus musculus [1] was found to be 17%. In turn, `CN(C)CCCCCOc1ccccc1/C=C/c1ccccc1` yielded an inhibition in vivo at 25 mg/kg in the assay with Mus musculus [4] of 75%. Also, the inhibition in vivo at 100 mg/kg with Mus musculus [5] was 81%.

As to `OCC1CCCN(CCCCOc2ccccc2/C=C/c2ccccc2)C1` (stereo not given), in the assay with Mus musculus [2], the inhibition in vivo at 50 mg/kg was determined as 12.5%.

As a reminder, the ED50 is the dose that gives a 50% effect, or the effect in half of the subjects. In the case of `CN1CCN(CCCCOc2ccccc2/C=C/c2ccccc2)CC1.Cl.Cl`, the inhibition in vivo at 50 mg/kg with Mus musculus [6] stood at 0%. The ED50 with Mus musculus [7] was 11.1 mg/kg; in the assay on Mus musculus [8], 31.1 mg/kg. Regarding `CCOC1CCCN(CCCCOc2ccccc2/C=C/c2ccccc2)C1.Cl` (stereo not given), the ED50 in the assay on Mus musculus [8] came to 17.5 mg/kg; in the assay with Mus musculus [9], 9.8 mg/kg. As for `CC(=O)OC1CCCN(CCCCOc2ccccc2/C=C/c2ccccc2)C1.Cl` (stereo not given), the values for the ED50 with Mus musculus [8] and in the assay with Mus musculus [9] were 18.7 mg/kg and 7.9 mg/kg, respectively. With `OC1CCN(CCCCOc2ccccc2/C=C/c2ccccc2)CC1`, the inhibition in vivo at 50 mg/kg in the assay with Mus musculus [2] turned out to be 0%; with Mus musculus [1], 50%. Regarding `COC1CCCN(CCCCOc2ccccc2/C=C/c2ccccc2)C1.Cl` (stereo not given), the values for the ED50 with Mus musculus [8] and with Mus musculus [9] were 12.6 mg/kg and 9.3 mg/kg, respectively. As to `COc1cccc(OCCCCN2CCN(C)CC2)c1/C=C/c1ccccc1.Cl.Cl`, testing at 50 mg/kg with Mus musculus [2] gave an inhibition in vivo of 42.9%. The compound further returned an ED50 with Mus musculus [7] of 50 mg/kg.

Consider `CN1CCN(CCCCOc2ccccc2/C=C/c2ccc(F)cc2)CC1.Cl.Cl`, for which the values for the ED50 in the assay with Mus musculus [7] and in the assay on Mus musculus [8] were 17.7 mg/kg and 39 mg/kg, respectively. Regarding `Cl.OC1CCCN(CCCCOc2ccccc2/C=C/c2ccccc2)C1` (stereo not given), the ED50 is 248 mg/kg in the assay filed under Rattus norvegicus [10], greater than 300 mg/kg in the assay listed under Rattus norvegicus [11], 12.5 mg/kg in the assay filed under Rattus norvegicus [13] and 20 mg/kg in the assay with Mus musculus [8]. Besides, the Therapeutic index in [12] is listed as greater than 24. Turning to `Cl.OC1CCCN(CCCCOc2ccccc2/C=C/c2ccc(F)cc2)C1` (stereo not given), the ED50 in the assay with Mus musculus [8] stood at 21.9 mg/kg; in the assay on Mus musculus [9], 8.8 mg/kg. The compound `Cl.OC1CCCN(CCCCOc2ccccc2/C=C/c2cccc(F)c2)C1` (stereo not given) gave an ED50 in the assay on Mus musculus [8] of 38 mg/kg. As to `O=C(O)C1CCCN(CCCCOc2ccccc2/C=C/c2ccccc2)C1` (stereo not given), the inhibition in vivo at 50 mg/kg with Mus musculus [2] is 12.5%.

Turning to `COC(=O)C1CCCN(CCCCOc2ccccc2/C=C/c2ccccc2)C1` (stereo not given), in the assay with Mus musculus [2], the inhibition in vivo at 50 mg/kg was determined as 0%.

For `C(=C\c1ccccc1OCCCCN1CCOCC1)/c1ccccc1`, the results for the inhibition in vivo at 50 mg/kg with Mus musculus [2] and in the assay on Mus musculus [1] were 14.3% and 87.5%, respectively. As for `CNCCCCOc1ccccc1/C=C/c1ccccc1.Cl`, in the assay with Mus musculus [8], the ED50 stood at 118 mg/kg. Compound `Cc1ccccc1/C=C/c1ccccc1OCCCCN(C)C` had an inhibition in vivo at 50 mg/kg in the assay on Mus musculus [1] of 16.7%.

As for `COc1ccccc1/C=C/c1ccccc1OCCCCN(C)C`, the inhibition in vivo at 50 mg/kg with Mus musculus [2] was 0%; with Mus musculus [1], 62.5%.

`C(=C\c1ccccc1OCCCCN1CCCCC1)/c1ccccc1`: the inhibition in vivo at 50 mg/kg stood at 42.9% in the assay on Mus musculus [2] and 100% with Mus musculus [3]. `CCCN(CCC)CCCCOc1ccccc1/C=C/c1ccccc1` returned an inhibition in vivo at 50 mg/kg in the assay with Mus musculus [2] of 0%. Consider `C(=C\c1ccccc1OCCCCN1CCCC1)/c1ccccc1`, for which the inhibition in vivo at 50 mg/kg in the assay with Mus musculus [2] stood at 42.9%; in the assay on Mus musculus [1], 87.5%. Turning to `CCN(CC)CCCCOc1ccccc1/C=C/c1ccccc1.Cl`, the ED50 with Mus musculus [7] turned out to be 11.5 mg/kg; in the assay on Mus musculus [8], 82 mg/kg. For the compound `CN(C)CCCCOc1ccccc1/C=C/c1ccc(F)cc1.Cl`, the ED50 in the assay on Mus musculus [7] amounted to 15.4 mg/kg. For the same compound, the inhibition in vivo at 100 mg/kg in the assay on Mus musculus [5] came to 14.3%. With `COC1CCCN(CCCCOc2ccccc2/C=C/c2ccc(F)cc2)C1` (stereo not given), the inhibition in vivo at 50 mg/kg in the assay on Mus musculus [2] came out at 12.5%. For `CN(C)CCN(C)CCCCOc1ccccc1/C=C/c1ccccc1`, the inhibition in vivo at 50 mg/kg with Mus musculus [2] stood at 0%.

Turning to `CC(=O)N1CCN(CCCCOc2ccccc2/C=C/c2ccccc2)CC1`, the inhibition in vivo at 50 mg/kg in the assay on Mus musculus [2] is 0%; in the assay with Mus musculus [1] it was 12.5%.

Take `C(=C\c1ccccc1OCCCCN1CCNCC1)/c1ccccc1`: the inhibition in vivo at 50 mg/kg in the assay with Mus musculus [2] and in the assay with Mus musculus [1] was 0% throughout.

`CN(C)CCCCOc1ccc(/C=C/c2ccccc2)cc1` returned an inhibition in vivo at 50 mg/kg in the assay with Mus musculus [2] of 12.5%. Regarding `CN(C)CCOc1ccccc1/C=C/c1ccccc1`, in the assay on Mus musculus [3], the inhibition in vivo at 50 mg/kg was 75%.

On to `CCCN1CCN(CCCCOc2ccccc2/C=C/c2ccccc2)CC1`, for which the inhibition in vivo at 50 mg/kg in the assay on Mus musculus [2] was 42.9%; with Mus musculus [1], 87.5%.

The compound `CN(C)CCCCOc1cccc(/C=C/c2ccccc2)c1` registered an inhibition in vivo at 50 mg/kg in the assay on Mus musculus [2] of 0%. `CCN1CCN(CCCCOc2ccccc2/C=C/c2ccccc2)CC1`: 50 mg/kg produced 33.3% inhibition in vivo in the assay with Mus musculus [2]. Consider `CN(C)CCCCOc1ccccc1/C=C/c1cccc(Cl)c1`, for which the inhibition in vivo at 50 mg/kg in the assay on Mus musculus [2] stood at 14.3%; in the assay on Mus musculus [1], 23.9%. With `NC(=O)C1CCCN(CCCCOc2ccccc2/C=C/c2ccccc2)C1` (stereo not given), the inhibition in vivo at 50 mg/kg in the assay on Mus musculus [2] turned out to be 0%. Consider `CN(C)CCCCOc1ccccc1/C=C/c1ccccc1Cl`, for which the inhibition in vivo at 50 mg/kg was 14.3% with Mus musculus [2] and 50% with Mus musculus [1]. In the case of `CN(C)CCCCOc1ccccc1/C=C/c1ccc(Cl)cc1`, the inhibition in vivo at 50 mg/kg in the assay on Mus musculus [2] was found to be 0%; in the assay on Mus musculus [1], 62.5%. On the same counts, the results for `CN1CCN(CCCCOc2ccccc2/C=C/c2ccc(Cl)c(Cl)c2)CC1` are 0% and 0%. For `CN1CCN(CCCCOc2ccccc2/C=C/c2cccc(Cl)c2)CC1`, the inhibition in vivo at 50 mg/kg with Mus musculus [2] came out at 0%; in the assay with Mus musculus [1], 50%. Compound `OC1CCCN(CCCCOc2ccc(Cl)cc2/C=C/c2ccccc2)C1` (stereo not given) came in with an inhibition in vivo at 50 mg/kg with Mus musculus [2] of 12.5%.

Turning to `COc1cccc(/C=C/c2ccccc2)c1OCCCCN(C)C`, 50 mg/kg produced 57.1% inhibition in vivo in the assay on Mus musculus [2]. The same compound displayed an ED50 with Mus musculus [7] of 21.6 mg/kg. Consider `OC1CCCN(CCCCOc2ccccc2/C=C/c2cccc(Cl)c2)C1` (stereo not given), for which the inhibition in vivo at 50 mg/kg with Mus musculus [2] was 12.5%. For the compound `NC(=O)N1c2ccccc2C=Cc2ccccc21` [CARBAMAZEPINE], the ED50 is 300 mg/kg in the assay filed under Rattus norvegicus [10], 120 mg/kg in the assay filed under Rattus norvegicus [11] and 32 mg/kg in the assay listed under Rattus norvegicus [15]. Also, in the assay listed under Rattus norvegicus [14], the Therapeutic index turned out to be 3.75. As to `O=C1NC(=O)C(c2ccccc2)(c2ccccc2)N1` [PHENYTOIN], the ED50 is 250 mg/kg in the assay filed under Rattus norvegicus [16], 40 mg/kg in the assay listed under Rattus norvegicus [13] and greater than 250 mg/kg in the assay listed under Rattus norvegicus [17]. Also, in [12], the Therapeutic index is greater than 6.25.
